Data taken from patent US10662193B2, “Carbazole and carboline compounds for use in the diagnosis, treatment, alleviation or prevention of disorders associated with amyloid or amyloid-like proteins” (AC IMMUNE SA, priority 2014, dated 2020).
Where two headings read alike, the source gives them in different places. Blank lines part the entries; values can stand above or below the compound they belong to.

Key:
[1] = test system: tau tangles/Aβ plaques on AD brain sections; assay: Assay 1: direct staining of human Alzheimer's disease brain sections (fluorescence); format: binding; set-up: key to Direct staining of tau tangles/Aβ plaques on AD brain sections at 100 μM / Direct staining of tau tangles on AD brain sections at 100 μM / Direct staining of Aβ plaques on AD brain sections at 100 μM / Direct staining of tau tangles on AD brain sections (footnote a: at 250 μM): − (No); +++ (strong); ++ (good); + (weak); conditions: 100 μM compound
How it was run: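 Frozen […] amygdala sections from Braak V-VI AD donors, PFA-fixed, incubated with compound at 100 μM in 50% ethanol for 20 min at room temperature in the dark. Sudan Black quenched autofluorescence, then staining detected by fluorescence microscopy.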

[2] = target: Tau enriched paired helical filaments (PHF) from human Alzheimer's disease (AD) brains (Homo sapiens, UniProt P10636); assay: Assay 3: backscattering interferometry, dissociation constants (Kd); format: binding
Sequence of Tau enriched paired helical filaments (PHF) from human Alzheimer's disease (AD) brains (P10636 623-708 limits assumed): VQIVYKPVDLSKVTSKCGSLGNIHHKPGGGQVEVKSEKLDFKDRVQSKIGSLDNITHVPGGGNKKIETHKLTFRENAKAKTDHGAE
Text: Assay 3 (Backscattering Interferometry):
Determination of Dissociation Constants (Kd) of Compounds of this Invention
Enrichment of Paired Helical Filaments (PHF's) from Human Alzheimer's Disease Brains
For backscattering interferometry, Tau enriched paired helical filaments (PHF) from human Alzheimer's disease (AD) brains were used as a target. Due to the limited availability of tissues, to determine dissociation constants (Kd) of compounds of this invention to the target, two different batches of enriched PHF were used. These batches are identified as batch 6 and 7 and were prepared as follows.
PHF batch number 6 was prepared starting from 25 g frontal cortical tissue from post-mortem brains of 25 Alzheimer's disease (AD) patients which were obtained from the London Tissue Bank. The mean age at death for the AD patients was 76 years (48% females). Brain samples were characterized for Braak disease stage (Braak and Braak, 1991), with most donors displaying a stage VI. The postmortem interval between death and brain dissection was between 6 and 65 h. Human brain homogenates were prepared by SB Drug Discovery (Glasgow, Scotland, UK) from the post-mortem cortical tissue of the 25 patients). Each tissue (1 g) was homogenized with a Dounce glass homogenizer in 1.5 mL 100 mM 2-(N-morpholino) ethane-sulfonic acid (MES) pH 6.8, 0.75 M NaCl, 1 mM EGTA, 0.5 mM MgSO4, 2 mM DTT containing protease inhibitors (Complete; Roche 11697498001). For each sample, two aliquots containing 0.5 g brain homogenates in 0.75 mL were shipped to AC Immune SA on dry ice and stored at −80° C. For the enrichment of PHF, 1 aliquot per donor corresponding to total 12.5 g of brain tissue were thawed on ice and then incubated at 4° C. for 20 min to depolymerize any residual microtubules. All samples were then pooled and transferred to three polycarbonate centrifuge bottles (16×76 mm; Beckman 355603).
PHF batch number 7 was prepared starting from 32 g of parietal cortex tissue from post-mortem brain of one Alzheimer's disease (AD) patient was obtained from an external provider (Tissue Solution). The patient was a person who died for end stage AD. The brain sample was collected 5 h post-mortem and characterized for Braak disease stage (Braak and Braak, 1991) as stage VI. The method used for the PHF enrichment was modified from published procedures (Jicha et al., 1997; Rostagno and Ghiso, 2009). Around 16 g of the AD human brain was thawed on ice and homogenized with 50 ml of homogenization buffer [0.75 M NaCl in RAB buffer (100 mM 2-(N-morpholino) ethanesulfonic acid (MES), 1 mM EGTA, 0.5 mM MgSO4, 2 mM DTT, pH 6.8) supplemented with protease inhibitors (Complete; Roche 11697498001)] in a glass Dounce homogenizer. The homogenate was then incubated at 4° C. for 20 min to let depolymerize any residual microtubules, before being transferred into polycarbonate centrifuge bottles (16×76 mm; Beckman 355603). For both purifications, brain homogenates were then centrifuged at 11,000 g (12,700 RPM) in an ultracentrifuge (Beckman, XL100K) for 20 min at 4° C. using the pre-cooled 70.1 rotor (Beckman, 342184). Pellets were kept on ice. Supernatants were pooled into polycarbonate bottles and centrifuged again at 100,000 g (38,000 RPM) for 1 h at 4° C. in the 70.1 Ti rotor to isolate PHF-rich pellets, whereas soluble Tau remained in the supernatants. The pellets from the first and second centrifugations were resuspended in 120 mL of extraction buffer [10 mM Tris-HCl pH 7.4, 10% sucrose, 0.85 M NaCl, 1% protease inhibitor (Calbiochem 539131), 1 mM EGTA, 1% phosphatase inhibitor (Sigma P5726 and P0044)]. The solution was then transferred into polycarbonate centrifuge bottles (16×76 mm; Beckman 355603) and centrifuged at 15,000 g (14,800 RPM) in an ultracentrifuge (Beckman, XL100K) for 20 min at 4° C. using the 70.1 Ti rotor. […]

[3] = test system: Aβ plaques on AD brain section; assay: Assay 1: displacement of Compound B on human AD brain sections (fluorescence); format: binding
Protocol: Direct Binding of Compounds of this Invention to Human Alzheimer's Disease Brain Sections and/or Displacement of RefA and Compound B Frozen sections with a thickness of […] from the amygdala of donors diagnosed with Braak stage V-VI Alzheimer's Disease (Braak, H.; Braak, E. Acta Neuropathol., 1991, 82, 239-259), were purchased from a commercial provider (Tissue Solutions) and kept at -80° C. until use. Displacement of RefA and Compound B Brain sections were mainly treated as described above. Test compounds were, however, incubated on the section at 250 μM in 50% ethanol for 20 min at room temperature, and then directly incubated with the fluorescent reference compounds RefA and Compound B, each at 1 μM in 50% ethanol for 20 min at room temperature. RefA and Compound B stainings were visualized using the 470 nm and 365 nm excitation filters, respectively. Images were acquired, and tangles and plaques quantified using the NIS-Element software. Only those compounds not directly staining tangles or plaques at the same wavelengths as RefA and Compound B were tested in the displacement assay. Structure of Compound B (prepared by a similar procedure described for […] in WO2010/011964): […]

[4] = test system: tau tangles on AD brain section; assay: Assay 1: displacement of RefA on human AD brain sections (fluorescence); format: binding; conditions: for Selectivity (tau/Abeta): ratio of competition on tau tangles to competition on Aβ plaques
How it was run: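 Braak V-VI AD amygdala frozen sections were preincubated with test compound at 250 μM in 50% ethanol for 20 min at room temperature. Fluorescent RefA at 1 μM in 50% ethanol was then added for 20 min, imaged at 470 nm excitation, and tangles were quantified.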

amyloid-beta = assay: Autoradiography on human brain sections with an 18F amyloid binding compound (selectivity); conditions: FIG. 13
Protocol: 18 micron thick frozen human brain slices and 6 micron thick human FFPE brain slices from the frontal and/or temporal lobes of AD patients were examined via autoradiography. Brain sections were equilibrated for at least 1 h in 1×PBS solution prior to use in the experiment. Each brain section was covered with a solution of the F-18 labeled tracer (200 Bq/μl, 500 μl) in 1×PBS. For blocking experiments with the corresponding 19F-labeled compound, an excess of the blocking compound was mixed with the 18F-compound to yield an end concentration of 10 μM. The brain sections were allowed to incubate with the tracer solution at room temperature for 1 h, drained afterwards and placed in a slide holder. The slides were then washed sequentially with 1×PBS for 1 min; 70% EtOH in 1×PBS for 2 min; 30% EtOH in 1×PBS for 2 min; and 1×PBS for 1 min. The slides were allowed to air-dry before being placed on Fuji imaging plates for overnight exposure. The imaging plates were scanned and the signal was measured using Fuji software to produce an autoradiographic image of the brain section. Representative examples of autoradiography studies with ^18F-178, ^18F-189, ^18F-161, ^18F-95, ^18F-168, ^18F-146, ^18F-156, ^18F-159 are shown in FIGS. 9 to 12. […] Additionally, selectivity was determined by using a tracer binding to amyloid-beta.

[5] = test system: human brain slices from the frontal and/or temporal lobes of AD patients; assay: Autoradiography with 18F-labeled compounds using human brain tissue; format: binding; conditions: FIG. 14; for competition with amyloid binding compound: block with an amyloid binding compound; for competition with corresponding cold compound: blocking compound 10 μM
Protocol: Autoradiography Using Human Brain Tissue
18 micron thick frozen human brain slices and 6 micron thick human FFPE brain slices from the frontal and/or temporal lobes of AD patients were examined via autoradiography. Brain sections were equilibrated for at least 1 h in 1×PBS solution prior to use in the experiment. Each brain section was covered with a solution of the F-18 labeled tracer (200 Bq/μl, 500 μl) in 1×PBS. For blocking experiments with the corresponding 19F-labeled compound, an excess of the blocking compound was mixed with the 18F-compound to yield an end concentration of 10 μM. The brain sections were allowed to incubate with the tracer solution at room temperature for 1 h, drained afterwards and placed in a slide holder. The slides were then washed sequentially with 1×PBS for 1 min; 70% EtOH in 1×PBS for 2 min; 30% EtOH in 1×PBS for 2 min; and 1×PBS for 1 min. The slides were allowed to air-dry before being placed on Fuji imaging plates for overnight exposure. The imaging plates were scanned and the signal was measured using Fuji software to produce an autoradiographic image of the brain section. Representative examples of autoradiography studies with ^18F-178, ^18F-189, ^18F-161, ^18F-95, ^18F-168, ^18F-146, ^18F-156, ^18F-159 are shown in FIGS. 9 to 12.
The specificity of the signals was confirmed by blocking with an excess of the corresponding non-radioactive compounds.

[6] = PHF batch 7 (parietal cortex, one AD patient), read-out: [Kd] on PHF batch 7
[7] = PHF batch 6 (pooled frontal cortex, 25 AD patients), read-out: [Kd] on PHF batch 6

Structure (SMILES): Cn1c2ccncc2c2ccc(N3CCN(CCF)CC3)nc21 [168 Step B]
- Direct staining of tau tangles on AD brain sections at 100 μM [1]: ++ (tangles)
- Kd [2, 6]: 160 ± 30 nM
- Competition on AD brain section Aβ plaques (1 μM Compound B vs 250 μM compound) [3]: −1%

Structure (SMILES): Cn1c2ccncc2c2ccc(N3CC4(CC(F)C4)C3)nc21 [Example 146]
- Direct staining of tau tangles on AD brain sections at 100 μM [1]: ++ (tangles)
- Kd [2, 6]: 40 ± 10 nM
- Competition on AD brain section Aβ plaques (1 μM Compound B vs 250 μM compound) [3]: 0%

Structure (SMILES): Cn1c2ccncc2c2ccc(N3[C@@H]4CC[C@H]3C[C@H](F)C4)nc21 [Example 147]
- Direct staining of tau tangles on AD brain sections at 100 μM [1]: ++ (tangles)
- Kd [2, 6]: 170 ± 40 nM

Structure (SMILES): Cn1c2ccncc2c2ccc(N3CC4(CC(OCCOCCOCCF)C4)C3)nc21 [Example 153]
- Direct staining of tau tangles on AD brain sections at 100 μM [1]: ++ (tangles)
- Kd [2, 7]: 20 ± 5 nM

Structure (SMILES): Cn1c2ccncc2c2ccc(N3CC4(CC(OCCF)C4)C3)nc21 [Example 154]
- Direct staining of tau tangles on AD brain sections at 100 μM [1]: ++ (tangles)
- Kd [2, 6]: 270 ± 50 nM

Structure (SMILES): Cn1c2ccncc2c2ccc(N3CCC[C@@H](F)C3)nc21 [Example 159]
- Direct staining of tau tangles on AD brain sections at 100 μM [1]: + (tangles)
- Kd [2, 6]: 120 ± 20 nM

Structure (SMILES): Cn1c2ccncc2c2ccc(N3CCC(F)CC3)nc21 [Example 161]
- Direct staining of tau tangles on AD brain sections at 100 μM [1]: + (tangles)
- Kd [2, 7]: 18 ± 3 nM
- Competition on AD brain section tau tangles (1 μM RefA vs. 250 μM compound) [4]: 85%
- Selectivity (tau/Abeta) [4]: ~6-fold
- Competition on AD brain section Aβ plaques (1 μM Compound B vs 250 μM compound) [3]: 14%

Structure (SMILES): Cn1c2ccncc2c2ccc(N3CCC(OCCOCC[18F])CC3)nc21 [^18F-152]
- competition with amyloid binding compound [5]: no competition
- competition with corresponding cold compound [5]: Competition observed

Structure (SMILES): Cn1c2ccncc2c2ccc(N3CC[C@H]([18F])C3)nc21 [^18F-160]
- competition with amyloid binding compound [5]: no competition
- competition with corresponding cold compound [5]: Competition observed

Structure (SMILES): Cn1c2ccncc2c2ccc(N3CCC([18F])CC3)nc21 [^18F-161]
- competition with amyloid binding compound [5]: no competition
- competition with corresponding cold compound [5]: Competition observed

Structure (SMILES): Cn1c2ccncc2c2ccc(N3CCN(CC[18F])CC3)nc21 [^18F-168]
- competition with amyloid binding compound [5]: no competition
- competition with corresponding cold compound [5]: Competition observed

Continued, in another order:

- Kd [2, 7]: 26 ± 7 nM
- Competition on AD brain section tau tangles (1 μM RefA vs. 250 μM compound) [4]: 72%
- Selectivity (tau/Abeta) [4]: >72 fold
- Competition on AD brain section Aβ plaques (1 μM Compound B vs 250 μM compound) [3]: −8%
Structure (SMILES): Cn1c2ccncc2c2ccc(N3CCC(OCCF)CC3)nc21 [Example 156]
- Direct staining of tau tangles on AD brain sections at 100 μM [1]: + (tangles)

- Kd [2, 7]: 16 ± 3 nM
Structure (SMILES): CN1CCc2c(c3ccc(Nc4cccc(OCCF)c4)nc3n2C)C1=O [Example 189]
- Direct staining of tau tangles on AD brain sections at 100 μM [1]: ++ (tangles)

- Kd [2, 7]: 100 ± 15 nM
Structure (SMILES): Cn1c2cc[nH]c(=O)c2c2ccc(Nc3cccc(OCCF)c3)nc21 [Example 197]
- Direct staining of tau tangles on AD brain sections at 100 μM [1]: + (tangles)

- Kd [2, 7]: 75 ± 12 nM
Structure (SMILES): Cn1c2c(c3ccc(Nc4ccc(F)c(OCCF)c4)nc31)C(=O)NCC2 [Example 201]
- Direct staining of tau tangles/Aβ plaques on AD brain sections at 100 μM ([1]; human AD brain sections, fluorescence, cell does not say tangles or plaques): −

- competition with ^18F amyloid binding compound (amyloid-beta): no competition
Structure (SMILES): Cn1c2ccncc2c2ccc(Nc3cccc(OCC[18F])c3)nc21 [^18F-44]

- competition with ^18F amyloid binding compound (amyloid-beta): no competition
Structure (SMILES): Cn1c2ccncc2c2ccc(Nc3cncc(OCC[18F])c3)nc21 [^18F-59]

- competition with amyloid binding compound [5]: no competition
Structure (SMILES): Cn1c2ccncc2c2ccc(N3CCC(OCC[18F])CC3)nc21 [^18F-156]
- competition with corresponding cold compound [5]: Competition observed
